In test [1] the target is T1, neurokinin-1 (NK-1) receptor (Homo sapiens, UniProt P25103).
T1 construct: endogenously expresses the neurokinin-1 (NK-1) receptor; endogenous in cells; host or cells: U373 human glioblastoma-astrocytoma cells (membranes)
Description: NK-1 Binding assay ([125I] Substance P competition, U373 cell membranes). To be noted: Bolton Hunter labeled [125I] Substance P, 30 min at 20° C. The procedure, abridged: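 U373 human glioblastoma-astrocytoma membranes (endogenous NK-1; 5–10 μg/well) competed against Bolton Hunter [125I] Substance P […] with drug at 10000–0.01 nM, 30 min at 20° C, in Tris-HCl pH 7.4 with 3 mM MnCl2 and protease inhibitors. Filtration binding; non-specific with 2 μM L-733,060. IC50 from displacement curve midpoint; Ki via Cheng–Prusoff.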

Test [2] deals with T2, human serotonin transporters (Homo sapiens, UniProt P31645).
T2 construct: expressed in transfected cells
T2 sequence (P31645 whole entry): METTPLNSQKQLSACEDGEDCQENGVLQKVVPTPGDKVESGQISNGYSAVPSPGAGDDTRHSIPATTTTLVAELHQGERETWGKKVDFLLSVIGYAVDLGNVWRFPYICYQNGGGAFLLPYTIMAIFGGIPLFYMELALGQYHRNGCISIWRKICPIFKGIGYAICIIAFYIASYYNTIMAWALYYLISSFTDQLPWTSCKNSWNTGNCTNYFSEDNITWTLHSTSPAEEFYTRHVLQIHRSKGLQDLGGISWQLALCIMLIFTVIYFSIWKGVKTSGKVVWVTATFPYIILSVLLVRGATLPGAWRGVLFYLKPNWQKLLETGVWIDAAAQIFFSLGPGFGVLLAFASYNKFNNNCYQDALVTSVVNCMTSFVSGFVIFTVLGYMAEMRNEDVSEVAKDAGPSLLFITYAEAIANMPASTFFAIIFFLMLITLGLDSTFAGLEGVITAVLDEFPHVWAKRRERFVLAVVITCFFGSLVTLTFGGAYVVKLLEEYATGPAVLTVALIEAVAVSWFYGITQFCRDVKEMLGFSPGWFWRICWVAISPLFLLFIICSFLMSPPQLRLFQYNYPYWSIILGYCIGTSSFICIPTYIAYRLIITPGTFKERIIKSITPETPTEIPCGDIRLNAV
Description: Serotonin transporter binding assay ([3H]-citalopram competition, HEK-hSERT cell membranes). To be noted: 1 nM [3H]-citalopram, 1 hr at 25° C., read-out: SERT IC50. Summed up: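 HEK-293 membranes stably expressing human SERT were incubated 1 hr at 25° C with 1 nM [3H]-citalopram and increasing test compound concentrations in 50 mM Tris pH 7.4, 120 mM NaCl, 5 mM KCl, then filtered. Non-specific binding was defined with 10 μM fluoxetine. IC50 is the displacement-curve midpoint; Ki via Cheng-Prusoff.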

This note sets out measurements from patent publication US7179926B2, “Aryloxyalkylamine NK-1/SSRI inhibitors” (Bristol-Myers Squibb Company, priority 2004, dated 2007).

As a reminder, the IC50 is the midpoint of a concentration-inhibition curve.

T1 sequence (P25103 whole entry): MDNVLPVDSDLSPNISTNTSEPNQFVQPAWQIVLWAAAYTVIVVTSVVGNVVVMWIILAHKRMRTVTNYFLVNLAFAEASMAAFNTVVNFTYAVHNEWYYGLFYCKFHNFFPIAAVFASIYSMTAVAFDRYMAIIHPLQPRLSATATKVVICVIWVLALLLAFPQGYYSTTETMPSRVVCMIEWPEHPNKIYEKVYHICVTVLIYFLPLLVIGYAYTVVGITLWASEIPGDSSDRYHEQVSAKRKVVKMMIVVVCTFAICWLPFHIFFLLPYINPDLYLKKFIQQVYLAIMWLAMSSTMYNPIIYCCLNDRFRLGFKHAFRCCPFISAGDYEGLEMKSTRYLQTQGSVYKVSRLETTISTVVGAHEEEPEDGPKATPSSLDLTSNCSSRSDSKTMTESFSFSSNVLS

As to `NCCC(O)(COCc1cc(C(F)(F)F)cc(C(F)(F)F)c1)c1cc(F)cc(F)c1` (stereo not shown) [Example 19, 1-(3,5-bis(trifluoromethyl)benzyloxy)-4-amino-2-(3,5-difluorophenyl)butan-2-ol], the IC50 was 1 to 100 nM in test [1] and 100 to 300 nM in test [2].

As to `NCCC(O)(COCc1cc(C(F)(F)F)cc(C(F)(F)F)c1)c1ccccc1` (racemic) [Example 7, 1-(3,5-bis(trifluoromethyl)benzyloxy)-4-amino-2-phenylbutan-2-ol], the IC50 in test [1] is 100 to 300 nM; in test [2] it was over 300 nM.
